Measured values as given in patent US20240199605A1, “SMALL MOLECULAR INHIBITORS OF NF-kB INDUCING KINASE” (Janssen Pharmaceutica NV, priority 2019, published 2024).

What follows are compounds tested against recombinant human NF-kappaB-inducing kinase (NIK/MAP3K14) (Homo sapiens (Human), UniProt Q99558) (assay: Inhibition of auto-phosphorylation of recombinant human NIK/MAP3K14 (AlphaScreen)). Details: NIK auto-phosphorylation, 5 μM ATP, 1 nM NIK, 2 h at 25° C.; average of values.
Type: biochemical
Experimental: Inhibition of auto-phosphorylation of recombinant human NF-kappaB-inducing kinase (NIK/MAP3K14) activity (AlphaScreen®)
NIK/MAP3K14 auto-phosphorylation activity was measured using the AlphaScreen® (αscreen) format (Perkin Elmer). All compounds tested were dissolved in dimethyl sulfoxide (DMSO) and further dilutions were made in assay buffer. The final DMSO concentration was 0.7% (v/v) in assays. The assay buffer was 50 mM Tris pH 7.5 containing 1 mM EGTA (ethylene glycol tetraacetic acid), 1 mM DTT (dithiothreitol), 0.1 mM Na3VO4, 5 mM MgCl2, and 0.01% Tween® 20. The assays were carried out in 384 well Proxiplates (Perkin Elmer). The incubations consisted of the compound, 5 μM Adenosine-5′-triphosphate (ATP), and 1 nM NIK/MAP3K14. Incubations were initiated by the addition of GST-tagged NIK/MAP3K14 enzyme, carried out for 2 h at 25° C. and terminated by addition of stop buffer containing anti-phospho-IKK Ser176/180 antibody. Protein A Acceptor and Glutathione-Donor beads were added before reading using an EnVision® Multilabel Plate Reader (Perkin Elmer). […] IC50's were determined by fitting a sigmoidal curve to % inhibition of control versus Log10 compound concentration.

recombinant human NF-kappaB-inducing kinase (NIK/MAP3K14), sequence (Q99558 whole entry): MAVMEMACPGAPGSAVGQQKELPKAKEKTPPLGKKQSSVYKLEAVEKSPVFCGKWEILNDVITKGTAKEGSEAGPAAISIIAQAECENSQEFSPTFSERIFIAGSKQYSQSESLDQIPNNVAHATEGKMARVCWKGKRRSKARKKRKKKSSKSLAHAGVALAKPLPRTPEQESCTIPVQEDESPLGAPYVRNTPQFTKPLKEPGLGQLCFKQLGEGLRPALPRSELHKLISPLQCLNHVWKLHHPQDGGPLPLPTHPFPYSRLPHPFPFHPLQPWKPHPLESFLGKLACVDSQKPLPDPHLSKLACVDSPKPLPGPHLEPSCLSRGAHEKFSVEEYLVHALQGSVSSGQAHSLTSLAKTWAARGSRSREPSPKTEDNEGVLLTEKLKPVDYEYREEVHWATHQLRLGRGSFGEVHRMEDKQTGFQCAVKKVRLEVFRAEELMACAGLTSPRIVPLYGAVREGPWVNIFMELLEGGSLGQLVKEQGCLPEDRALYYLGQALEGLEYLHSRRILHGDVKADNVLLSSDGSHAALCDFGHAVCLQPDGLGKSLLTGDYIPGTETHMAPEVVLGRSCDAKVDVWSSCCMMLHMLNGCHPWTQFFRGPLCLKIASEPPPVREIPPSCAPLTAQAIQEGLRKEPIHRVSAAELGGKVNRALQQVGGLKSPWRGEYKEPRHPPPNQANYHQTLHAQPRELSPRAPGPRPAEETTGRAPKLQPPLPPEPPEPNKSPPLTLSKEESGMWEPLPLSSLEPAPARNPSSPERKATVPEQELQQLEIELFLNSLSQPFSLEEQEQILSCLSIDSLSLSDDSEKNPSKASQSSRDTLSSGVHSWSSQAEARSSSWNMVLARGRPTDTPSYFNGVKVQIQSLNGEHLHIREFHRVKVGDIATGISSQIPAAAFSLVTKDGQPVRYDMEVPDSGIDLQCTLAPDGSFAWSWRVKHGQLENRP

Row | Compound | IC50 [µM]
1 | Cc1nc(N)c2nc(-c3cccc(C#CC4(O)CCCc5cccnc54)c3)ccc2n1 (racemic) [Example 165, racemic-8-((3-(4-Amino-2-methylpyrido[3,2-d]pyrimidin-6-yl)phenyl)ethynyl)-5,6,7,8-tetrahydroquinolin-8-ol] | 0.12
2 | C=CCN1CCC(O)(C#Cc2cccc(-c3ccc4nc(C)nc(N)c4n3)c2)C1=O (racemic) [Example 195, racemic-1-Allyl-3-((3-(4-amino-2-methylpyrido[3,2-d]pyrimidin-6-yl)phenyl)ethynyl)-3-hydroxypyrrolidin-2-one] | 0.021
3 | [2H]c1nc(N)c2nc(-c3cccc(C#CC4(O)CCN(CC=C)C4=O)c3)ccc2n1 (racemic) [Example 196, racemic-1-Allyl-3-((3-(4-aminopyrido[3,2-d]pyrimidin-6-yl-2-d)phenyl)ethynyl)-3-hydroxypyrrolidin-2-one] | 0.0044
4 | Nc1nccc2cnc(-c3cccc(C#CC4(O)CCc5cccnc54)c3)nc12 (stereo in doubt) [Example 46, (S)-7-[2-[3-(8-Aminopyrido[3,4-d]pyrimidin-2-yl)phenyl]ethynyl]-5,6-dihydrocyclopenta[b]pyridin-7-ol] | 2.03
5 | Cc1cc2cnc(-c3cccc(C#C[C@]4(O)CCN(C)C4=O)c3)nc2c(N)n1 [Example 44, (R)-3-((3-(8-Amino-6-methylpyrido[3,4-d]pyrimidin-2-yl)phenyl)ethynyl)-3-hydroxy-1-methylpyrrolidin-2-one] | 0.043
6 | CN1CC[C@@](O)(C#Cc2cccc(-c3cc(C(F)F)c4ncnc(N)c4n3)c2)C1=O [Example 289, (R)-3-((3-(4-Amino-8-(difluoromethyl)pyrido[3,2-d]pyrimidin-6-yl)phenyl)ethynyl)-3-hydroxy-1-methylpyrrolidin-2-one] | 0.0014
7 | CN1CC[C@@](O)(C#Cc2cccc(-c3cc(N4CC(C(F)(F)F)C4)c4ncnc(N)c4n3)c2)C1=O [Example 315, (R)-3-[2-[3-[4-Amino-8-[3-(trifluoromethyl)azetidin-1-yl]pyrido[3,2-d]pyrimidin-6-yl]phenyl]ethynyl]-3-hydroxy-1-methyl-pyrrolidin-2-one] | 0.005
8 | CN1CC[C@@](O)(C#Cc2cccc(-c3cc(NCC(F)(F)F)c4ncnc(N)c4n3)c2)C1=O [Example 317, (R)-3-((3-(4-Amino-8-((2,2,2-trifluoroethyl)amino)pyrido[3,2-d]pyrimidin-6-yl)phenyl)ethynyl)-3-hydroxy-1-methylpyrrolidin-2-one] | 0.0006
9 | Cc1ccc(C#C[C@@]2(O)C(=O)N(C)[C@@H]3C[C@@H]32)cc1-c1nc2c(N)ncnc2s1 [Example 318, (1R,4R,5S)-4-((3-(7-Aminothiazolo[5,4-d]pyrimidin-2-yl)-4-methylphenyl)ethynyl)-4-hydroxy-2-methyl-2-azabicyclo[3.1.0]hexan-3-one] | 0.001
10 | Cc1ccc(C#C[C@]2(O)C[C@@H](C)N(C)C2=O)cc1-c1nc2c(N)ncnc2s1 [Example 319, (3R,5R)-3-((3-(7-Aminothiazolo[5,4-d]pyrimidin-2-yl)-4-methylphenyl)ethynyl)-3-hydroxy-1,5-dimethylpyrrolidin-2-one] | 0.0015

What follows are compounds tested on p-IKKα levels in L363 (NIK translocated multiple myeloma) cells (assay: Effect of compounds on p-IKKα levels in L363 cells (AlphaLISA SureFire Ultra)). Details: Homo sapiens, L-363, 6 h, BAFF stimulated, MG132, 6 h, average of values, read-out: Assay 2 IC50.
Type: cell-based, human
Experimental: Effect of Compounds on p-IKKα Levels in L363 (NIK Translocated Multiple Myeloma) Cells
All compounds tested were dissolved and serially diluted in DMSO, 1:3 dilution for 11 points in an Echo compatible plate. 100% DMSO was added to columns 12 and 24 of the plate to serve as high and low signal controls. This compound plate was used to spot 20 nL of compound or DMSO into a Greiner 384 well TC plate (781080). The final DMSO concentration was 0.3% (v/v) in cell assays. Human L363 cells (ATCC) were cultured in RPM11640 medium supplemented with GlutaMax, non-essential amino acids, sodium pyruvate and 10% fetal bovine serum. Cells were routinely maintained at densities of […] at 37° C. in a humidified 5% CO2 atmosphere incubator. Cells were passaged twice a week splitting back to obtain the low density. The day before the assay, cells were washed twice in HBSS (Hank's Balanced Salt Solution), resuspended in Dulbecco's Modified Eagle Medium (DMEM)+0.5% IgG and protease free BSA (Jackson Immuno Research Laboratories), +/−250 ng/ml recombinant human B-cell activating factor (BAFF/BLyS/TNFSF13B) and incubated overnight at 37° C. in a humidified 5% CO2 atmosphere (bulk stimulation with or without BAFF). The next day, the cell concentration was adjusted to 1×10^7 cells/ml in DMEM+/−250 ng/ml BAFF+/−10 μM MG132 and plated at 10 μl/well into compound or DMSO spotted 384 well TC plates. Seeded cells were incubated at 37° C. in a humidified 5% CO2 atmosphere for 6 h. After 6 h, the plates were removed from the incubator and cell lysis was achieved by the addition of 2.5 μl 5× lysis buffer containing protease and phosphatase inhibitors, followed by shaking on a plate shaker at room temperature for 15 min. At the end of this incubation, lysed cells were sequentially treated and incubated with acceptor and donor bead mixes according to the manufacturer's protocol for a 1 plate/2-incubation suspension cell assay (AlphaLISA SureFire Ultra p-IKKa (Ser 176/180) Assay Kit (Perkin Elmer). Plates were read using an EnVision® Multilabel Plate Reader (Perkin Elmer). Within an experiment, a concentration response curve for each compound was run in duplicate. The signal obtained in the test wells was normalized using high signal (BAFF stimulated cells, DMSO, MG132) and low signal (unstimulated cells, DMSO) controls. To determine the IC50, a sigmoidal curve was fitted to the plot of % inhibition versus Log10 compound concentration.

Row | Compound | IC50 [µM]
11 | Cc1nc(N)c2nc(-c3cccc(C#CC4(O)CCCc5cccnc54)c3)ccc2n1 (racemic) [Example 165, racemic-8-((3-(4-Amino-2-methylpyrido[3,2-d]pyrimidin-6-yl)phenyl)ethynyl)-5,6,7,8-tetrahydroquinolin-8-ol] | > 5
12 | C=CCN1CCC(O)(C#Cc2cccc(-c3ccc4nc(C)nc(N)c4n3)c2)C1=O (racemic) [Example 195, racemic-1-Allyl-3-((3-(4-amino-2-methylpyrido[3,2-d]pyrimidin-6-yl)phenyl)ethynyl)-3-hydroxypyrrolidin-2-one] | 1.13
13 | [2H]c1nc(N)c2nc(-c3cccc(C#CC4(O)CCN(CC=C)C4=O)c3)ccc2n1 (racemic) [Example 196, racemic-1-Allyl-3-((3-(4-aminopyrido[3,2-d]pyrimidin-6-yl-2-d)phenyl)ethynyl)-3-hydroxypyrrolidin-2-one] | 0.25
14 | [2H]c1nc(N)c2nc(-c3cccc(C#C[C@]4(O)CCN(C)C4=O)c3)ccc2n1 [Example 8, (R)-3-((3-(4-Aminopyrido[3,2-d]pyrimidin-6-yl-2-d)phenyl)ethynyl)-3-hydroxy-1-methylpyrrolidin-2-one] | 0.0033
15 | [2H]c1nc(N)c2nc(-c3cccc(C#C[C@@]4(O)CCN(C)C4=O)c3)ccc2n1 [Example 9, (S)-3-((3-(4-Aminopyrido[3,2-d]pyrimidin-6-yl-2-d)phenyl)ethynyl)-3-hydroxy-1-methylpyrrolidin-2-one] | 0.67
16 | CN1CC[C@@](O)(C#Cc2cccc(-c3ccc4ncnc(N)c4n3)c2)C1=O [Example 12, (R)-3-((3-(4-Aminopyrido[3,2-d]pyrimidin-6-yl)phenyl)ethynyl)-3-hydroxy-1-methylpyrrolidin-2-one] | 0.003
17 | CN1CC[C@@](O)(C#Cc2cccc(-c3nc4c(N)nccc4[nH]3)c2)C1=O [Example 59, (R)-3-[2-[3-(4-Amino-1H-imidazo[4,5-c]pyridin-2-yl)phenyl]ethynyl]-3-hydroxy-1-methyl-pyrrolidin-2-one] | > 5
18 | Cc1cc(C#C[C@]2(O)CCN(C)C2=O)cc(-c2nc3c(N)ncnc3s2)c1 [Example 153, (R)-3-((3-(7-Aminothiazolo[5,4-d]pyrimidin-2-yl)-5-methylphenyl)ethynyl)-3-hydroxy-1-methylpyrrolidin-2-one] | 0.047
19 | [2H]c1nc(N)c2nc(-c3cccc(C#C[C@@]4(O)CCCN(C)C4=O)c3)ccc2n1 [Example 199, (S)-3-((3-(4-Aminopyrido[3,2-d]pyrimidin-6-yl-2-d)phenyl)ethynyl)-3-hydroxy-1-methylpiperidin-2-one] | > 5
20 | CN1CC[C@@](O)(C#Cc2cccc(-c3ccc4ncncc4n3)c2)C1=O [Example 223] | > 5
21 | COC1CN(c2ncnc3ccc(-c4cccc(C#C[C@]5(O)CCN(C)C5=O)c4)nc23)C1 [Example 230, (R)-3-Hydroxy-3-((3-(4-(3-methoxyazetidin-1-yl)pyrido[3,2-d]pyrimidin-6-yl)phenyl)ethynyl)-1-methylpyrrolidin-2-one] | 0.35
22 | CC(=O)Nc1ncnc2ccc(-c3cccc(C#C[C@]4(O)CCN(C)C4=O)c3)nc12 [Example 238, (R)—N-(6-(3-((3-Hydroxy-1-methyl-2-oxopyrrolidin-3-yl)ethynyl)phenyl)pyrido[3,2-d]pyrimidin-4-yl)acetamide] | 0.073
23 | [2H]c1nc(NC(C)=O)c2nc(-c3cccc(C#C[C@]4(O)CCN(C)C4=O)c3)ccc2n1 [Example 259, (R)—N-(6-(3-((3-Hydroxy-1-methyl-2-oxopyrrolidin-3-yl)ethynyl)phenyl)pyrido[3,2-d]pyrimidin-4-yl-2-d)acetamide] | 0.065
24 | [2H]c1nc(N)c2nc(-c3cccc(C#C[C@]4(O)C[C@@H](C)N(C)C4=O)c3)ccc2n1 [Example 261, (3R,5R)-3-((3-(4-Aminopyrido[3,2-d]pyrimidin-6-yl-2-d)phenyl)ethynyl)-3-hydroxy-1,5-dimethylpyrrolidin-2-one] | 0.0077
25 | [2H]c1nc(N)c2nc(-c3cccc(C#C[C@]4(O)C[C@H](C)N(C)C4=O)c3)ccc2n1 [Example 262, (3R,5S)-3-((3-(4-Aminopyrido[3,2-d]pyrimidin-6-yl-2-d)phenyl)ethynyl)-3-hydroxy-1,5-dimethylpyrrolidin-2-one] | 0.22
26 | [2H]c1nc(N)c2nc(-c3cccc(C#C[C@@]4(O)C[C@H](C)N(C)C4=O)c3)ccc2n1 [Example 263, (3S,5S)-3-((3-(4-Aminopyrido[3,2-d]pyrimidin-6-yl-2-d)phenyl)ethynyl)-3-hydroxy-1,5-dimethylpyrrolidin-2-one] | 4.35
27 | [2H]c1nc(N)c2nc(-c3cccc(C#C[C@@]4(O)C[C@@H](C)N(C)C4=O)c3)ccc2n1 [Example 264, (3S,5R)-3-((3-(4-Aminopyrido[3,2-d]pyrimidin-6-yl-2-d)phenyl)ethynyl)-3-hydroxy-1,5-dimethylpyrrolidin-2-one] | 0.66
28 | [2H]c1nc(NS(C)(=O)=O)c2nc(-c3cccc(C#C[C@]4(O)CCN(C)C4=O)c3)ccc2n1 [Example 269, (R)—N-(6-(3-((3-Hydroxy-1-methyl-2-oxopyrrolidin-3-yl)ethynyl)phenyl)pyrido[3,2-d]pyrimidin-4-yl-2-d)methanesulfonamide] | 3.85
